Patent publication US9133170B2, “Inhibitors of HCV NS5A” (priority 2011, dated 2015)

Each compound was assayed on GT-1a pRLuc H77 1b 75 S/I subgenomic replicon cell line (assay: HCV GT-1a subgenomic replicon Renilla luciferase reporter assay). Settings: Hepatitis C virus, GT1A, Huh-7, 72 h, read-out: GT-1a-IC50.
Format: cell-based
Source text: Determination of compounds HCV GT1b inhibitory replicon activity using the replicon luciferase reporter assay
The 2209-23 cell line was developed at Roche by stable transfection of the hepatoma cell line Huh-7 with a GT-1b Con1 subgenomic bicistronic replicon as previously described. Subgenomic replicon cell line was established in cured Huh7 cells, obtained from R. Bartenschlager (J Virol. 2003 March; 77 (5):3007-19) The GT-1a H77 subgenomic replicon vector pRLuc H77 1b 75 S/I, was created by replacing the non structural region of the GT-1b Con1 subgenomic replicon by the one of the H77 strain, except for the first 75 amino acids of the NS3 protein that are from GT-1b Con1 strain. (J Virol. 2001 77:5352-59) The GT-1a pRLuc H77 1b 75 S/I subgenomic replicon cell line was established in cured Huh7 cells, obtained from R. Bartenschlager (J Virol. 2003 March; 77 (5):3007-19).
All the subgenomic replicon cell lines were cultured in Dulbecco's Modified Eagle Medium (DMEM-Glutamax™-I; Invitrogen Cat #10569-010). The medium was supplemented with 10% Fetal Bovine Serum (Invitrogen Cat #10082-147), 1% penicillin/streptomycin (Mediatech Cat # 30-002-CI) and 500 μg/ml of G418 (Mediatech Cat #30-234-CI). Cells were maintained at 37° C. in a humidified 5% CO2 atmosphere.
2209-23 cells were plated at a cell density of 5000 cells per well in 96 well plates (Becton Dickinson, Cat #35 3296). Cells were plated in 90 μl of Dulbecco's Modified Eagle Medium (DMEM-Glutamax™-I), (Invitrogen Cat #10569-010) medium was supplemented with 5% Fetal Bovine Serum (Invitrogen Cat #10082-147), 1% penicillin/streptomycin (Mediatech Cat #30-002-CI). The pRluc H77 1b 75 S/I cells were plated in 96-well plate at 3000 cells/well in DMEM-Glutamax™-I containing 5% FBS and 1% penicillin/streptomycin in 90 μl final volume. Cells were allowed to equilibrate for 24 hours at 37° C. and 5% CO2 at which time compounds were added. Compounds (or medium as a control) were added 24 hours post-plating in 3 fold dilutions at a final DMSO concentration of 1% in 10 ul volume. Renilla luciferase reporter signal was read 72 hours after addition of compounds using the Renilla Luciferase Assay System (Promega, cat #E2820). EC50 values were defined as the compound concentration at which a 50% reduction in the levels of renilla luciferase reporter was observed as compared to control samples in the absence of compound and was determined by non-linear fitting of compound dose-response data. The EC50 was approximated if maximum percentage inhibition was less than 90% and more than 70%.

Point of comparison: `COC(=O)N[C@H]1CCC(=O)N2CCC[C@@H](C(=O)N3CCC[C@H]3C(=O)Nc3ccc(-c4ccc(-c5cnc([C@@H]6CCCN6C(=O)[C@@H](NC(=O)OC)C(C)C)[nH]5)cc4)cc3)N2C1=O` [Compound I-2, {(4S,7S)-4-[(S)-2-(4′-{2-[(S)-1-((S)-2-Methoxycarbonylamino-3-methyl-butyryl)-pyrrolidin-2-yl]-3H-imidazol-4-yl}-biphenyl-4-ylcarbamoyl)-pyrrolidine-1-carbonyl]-6,10-dioxo-octahydro-pyridazino[1,2-a][1,2]diazepin-7-yl}-carbamic acid methyl ester], IC50 190 nM. Against it:
- COC(=O)N[C@H]1CCc2cccc3c2N(C1=O)[C@H](C(=O)N1CCC[C@H]1C(=O)Nc1ccc(-c2ccc(-c4[nH]c([C@@H]5CCCN5C(=O)[C@@H](NC(=O)OC)C(C)C)nc4Cl)cc2)cc1)C3 [Compound I-4, {(2S,5S)-2-[(S)-2-(4′-{5-Chloro-2-[(S)-1-((S)-2-methoxycarbonylamino-3-methyl-butyryl)-pyrrolidin-2-yl]-3H-imidazol-4-yl}-biphenyl-4-ylcarbamoyl)-pyrrolidine-1-carbonyl]-4-oxo-1,2,4,5,6,7-hexahydro-azepino[3,2,1-hi]indol-5-yl}-carbamic acid methyl ester] — 140-fold lower, 1.38 nM
- COC(=O)N[C@H](C(=O)N1CCC[C@H]1C(=O)N1CCC[C@H]1C(=O)Nc1ccc(-c2ccc(-c3cnc([C@@H]4CCCN4C(=O)[C@@H](NC(=O)OC)C(C)C)[nH]3)cc2)cc1)C(C)C [Compound I-5, ((S)-1-{(S)-2-[(S)-2-(4′-{2-[(S)-1-((S)-2-Methoxycarbonylamino-3-methyl-butyryl)-pyrrolidin-2-yl]-3H-imidazol-4-yl}-biphenyl-4-ylcarbamoyl)-pyrrolidine-1-carbonyl]-pyrrolidine-1-carbonyl}-2-methyl-propyl)-carbamic acid methyl ester] — 39-fold lower, 4.87 nM
- COC(=O)N[C@H]1CCc2cccc3c2N(C1=O)[C@H](C(=O)N1CCC[C@H]1C(=O)Nc1ccc(-c2ccc(-c4cnc([C@@H]5CC(F)(F)CN5C(=O)[C@@H](NC(=O)OC)C(C)C)[nH]4)cc2)cc1)C3 [Compound I-3, {(2S,5S)-2-[(S)-2-(4′-{2-[(S)-1-((S)-2-Methoxycarbonylamino-3-methyl-butyryl)-4,4-difluoropyrrolidin-2-yl]-3H-imidazol-4-yl}-biphenyl-4-ylcarbamoyl)-pyrrolidine-1-carbonyl]-4-oxo-1,2,4,5,6,7-hexahydro-azepino[3,2,1-hi]indol-5-yl}-carbamic acid methyl ester] — within 1.5-fold, 147 nM
- COC(=O)N[C@H](C(=O)N1CCC[C@H]1c1ncc(-c2ccc(-c3ccc(NC(=O)[C@@H]4CCCN4C(=O)[C@@H]4CCCN4C(=O)[C@H](NC(=O)OC)c4ccccc4)cc3)cc2)[nH]1)C(C)C [Compound I-6, [(S)-1-((S)-2-{5-[4′-({(S)-1-[(S)-1-((R)-2-Methoxycarbonylamino-2-phenyl-acetyl)-pyrrolidine-2-carbonyl]-pyrrolidine-2-carbonyl}-amino)-biphenyl-4-yl]-1H-imidazol-2-yl}-pyrrolidine-1-carbonyl)-2-methyl-propyl]-carbamic acid methyl ester] — 2.7-fold lower, 69.9 nM
- COC(=O)N[C@H]1CCc2cccc3c2N(C1=O)[C@H](C(=O)N1CCC[C@H]1C(=O)Nc1ccc(-c2ccc(-c4cnc([C@@H]5CCCN5C(=O)[C@@H](NC(=O)OC)C(C)C)[nH]4)cc2)cc1)C3 [Compound I-1, {(2S,5S)-2-[(S)-2-(4′-{2-[(S)-1-((S)-2-Methoxycarbonylamino-3-methyl-butyryl)-pyrrolidin-2-yl]-3H-imidazol-4-yl}-biphenyl-4-ylcarbamoyl)-pyrrolidine-1-carbonyl]-4-oxo-1,2,4,5,6,7-hexahydro-azepino[3,2,1-hi]indol-5-yl}-carbamic acid methyl ester] — 23-fold lower, 8.38 nM
